Source: US9302988B2, “Fluoromethyl-substituted pyrrole carboxamides” (GRÜNENTHAL GMBH, priority 2012, dated 2016)

target: T1, Human CaV2.2 channels (Homo sapiens, UniProt Q00975); assay: Fluorescent assay for CaV2.2 channels using potassium depolarization to induce channel opening (FLIPR, Fluo-4); type: cell-based; details: 3 μM test compound, 30 mM KCl, HEK293 cells stably expressing human CaV2.2; read-out: %-Inhib (CaV2.2) @3 μM @30 mM KCl
T1 construct: expressed in transfected cells
Outline: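 HEK293 cells stably co-expressing CaV2.2 with α2δ and β subunits plus Kir2.3 were Fluo-4 loaded, then preincubated 15 min at 25 °C with compound in 30 mM KCl buffer, pH 7.4. Depolarization was by adding buffer containing 210 mM KCl. Inhibition was taken from baseline-normalized peak fluorescence amplitude (ex 480/em 535 nm).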

T1 sequence (Q00975 whole entry): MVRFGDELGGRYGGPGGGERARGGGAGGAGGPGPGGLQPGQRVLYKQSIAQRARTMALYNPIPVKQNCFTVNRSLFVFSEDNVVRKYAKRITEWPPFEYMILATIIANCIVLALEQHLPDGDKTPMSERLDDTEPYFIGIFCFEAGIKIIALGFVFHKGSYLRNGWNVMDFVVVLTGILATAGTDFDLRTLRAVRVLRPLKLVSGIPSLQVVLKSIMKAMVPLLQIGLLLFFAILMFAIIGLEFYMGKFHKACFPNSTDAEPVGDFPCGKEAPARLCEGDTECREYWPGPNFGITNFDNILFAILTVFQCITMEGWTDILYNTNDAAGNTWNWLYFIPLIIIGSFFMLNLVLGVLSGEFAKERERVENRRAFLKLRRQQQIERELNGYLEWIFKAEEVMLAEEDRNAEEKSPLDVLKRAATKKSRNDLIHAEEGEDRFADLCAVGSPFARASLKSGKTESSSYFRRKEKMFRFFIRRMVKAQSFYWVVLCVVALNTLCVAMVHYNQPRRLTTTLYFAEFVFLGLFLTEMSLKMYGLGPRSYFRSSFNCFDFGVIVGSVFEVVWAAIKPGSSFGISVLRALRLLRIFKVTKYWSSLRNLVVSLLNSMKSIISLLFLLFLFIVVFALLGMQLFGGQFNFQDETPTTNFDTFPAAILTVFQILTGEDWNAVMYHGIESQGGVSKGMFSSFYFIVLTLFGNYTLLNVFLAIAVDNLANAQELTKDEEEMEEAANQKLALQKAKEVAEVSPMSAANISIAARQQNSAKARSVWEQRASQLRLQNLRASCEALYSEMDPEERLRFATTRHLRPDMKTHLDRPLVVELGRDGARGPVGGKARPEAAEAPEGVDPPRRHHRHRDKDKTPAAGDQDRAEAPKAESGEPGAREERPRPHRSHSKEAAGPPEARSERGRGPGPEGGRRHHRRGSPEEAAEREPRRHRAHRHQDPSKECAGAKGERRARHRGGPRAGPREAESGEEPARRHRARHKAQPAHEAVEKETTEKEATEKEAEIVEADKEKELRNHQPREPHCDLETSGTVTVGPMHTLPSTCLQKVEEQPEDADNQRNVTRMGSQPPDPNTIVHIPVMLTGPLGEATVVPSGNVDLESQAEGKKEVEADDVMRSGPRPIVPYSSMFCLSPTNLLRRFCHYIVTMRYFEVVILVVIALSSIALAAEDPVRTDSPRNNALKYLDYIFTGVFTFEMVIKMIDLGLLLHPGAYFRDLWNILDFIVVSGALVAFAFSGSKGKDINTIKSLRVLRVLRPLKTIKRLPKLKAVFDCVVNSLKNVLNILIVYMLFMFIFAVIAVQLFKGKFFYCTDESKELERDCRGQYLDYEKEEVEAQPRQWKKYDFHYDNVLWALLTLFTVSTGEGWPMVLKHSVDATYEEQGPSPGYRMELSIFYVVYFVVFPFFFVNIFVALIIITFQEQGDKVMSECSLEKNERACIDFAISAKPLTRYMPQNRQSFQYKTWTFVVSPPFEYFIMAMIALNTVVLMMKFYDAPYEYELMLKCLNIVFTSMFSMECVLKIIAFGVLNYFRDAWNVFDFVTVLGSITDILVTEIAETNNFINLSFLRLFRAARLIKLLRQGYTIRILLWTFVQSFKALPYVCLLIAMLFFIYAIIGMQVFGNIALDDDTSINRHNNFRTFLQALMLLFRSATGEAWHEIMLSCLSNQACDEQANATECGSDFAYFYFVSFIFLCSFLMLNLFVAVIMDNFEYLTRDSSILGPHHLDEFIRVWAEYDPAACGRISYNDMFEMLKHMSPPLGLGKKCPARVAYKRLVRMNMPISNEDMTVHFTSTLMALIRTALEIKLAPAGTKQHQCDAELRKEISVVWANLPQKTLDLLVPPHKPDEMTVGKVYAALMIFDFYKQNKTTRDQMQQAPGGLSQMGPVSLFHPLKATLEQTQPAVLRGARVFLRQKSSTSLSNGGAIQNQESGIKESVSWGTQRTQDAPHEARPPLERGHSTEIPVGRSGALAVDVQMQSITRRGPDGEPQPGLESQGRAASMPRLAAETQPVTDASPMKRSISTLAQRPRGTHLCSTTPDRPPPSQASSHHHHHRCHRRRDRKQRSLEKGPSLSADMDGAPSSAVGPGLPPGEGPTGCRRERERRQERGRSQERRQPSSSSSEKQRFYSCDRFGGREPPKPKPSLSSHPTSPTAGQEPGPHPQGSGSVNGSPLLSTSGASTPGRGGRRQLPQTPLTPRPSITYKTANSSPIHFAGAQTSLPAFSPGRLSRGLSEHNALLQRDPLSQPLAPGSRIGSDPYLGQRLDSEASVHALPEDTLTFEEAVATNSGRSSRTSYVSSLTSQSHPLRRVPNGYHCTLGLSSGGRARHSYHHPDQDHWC
T1 sequence (P54289 25-1103, further chain): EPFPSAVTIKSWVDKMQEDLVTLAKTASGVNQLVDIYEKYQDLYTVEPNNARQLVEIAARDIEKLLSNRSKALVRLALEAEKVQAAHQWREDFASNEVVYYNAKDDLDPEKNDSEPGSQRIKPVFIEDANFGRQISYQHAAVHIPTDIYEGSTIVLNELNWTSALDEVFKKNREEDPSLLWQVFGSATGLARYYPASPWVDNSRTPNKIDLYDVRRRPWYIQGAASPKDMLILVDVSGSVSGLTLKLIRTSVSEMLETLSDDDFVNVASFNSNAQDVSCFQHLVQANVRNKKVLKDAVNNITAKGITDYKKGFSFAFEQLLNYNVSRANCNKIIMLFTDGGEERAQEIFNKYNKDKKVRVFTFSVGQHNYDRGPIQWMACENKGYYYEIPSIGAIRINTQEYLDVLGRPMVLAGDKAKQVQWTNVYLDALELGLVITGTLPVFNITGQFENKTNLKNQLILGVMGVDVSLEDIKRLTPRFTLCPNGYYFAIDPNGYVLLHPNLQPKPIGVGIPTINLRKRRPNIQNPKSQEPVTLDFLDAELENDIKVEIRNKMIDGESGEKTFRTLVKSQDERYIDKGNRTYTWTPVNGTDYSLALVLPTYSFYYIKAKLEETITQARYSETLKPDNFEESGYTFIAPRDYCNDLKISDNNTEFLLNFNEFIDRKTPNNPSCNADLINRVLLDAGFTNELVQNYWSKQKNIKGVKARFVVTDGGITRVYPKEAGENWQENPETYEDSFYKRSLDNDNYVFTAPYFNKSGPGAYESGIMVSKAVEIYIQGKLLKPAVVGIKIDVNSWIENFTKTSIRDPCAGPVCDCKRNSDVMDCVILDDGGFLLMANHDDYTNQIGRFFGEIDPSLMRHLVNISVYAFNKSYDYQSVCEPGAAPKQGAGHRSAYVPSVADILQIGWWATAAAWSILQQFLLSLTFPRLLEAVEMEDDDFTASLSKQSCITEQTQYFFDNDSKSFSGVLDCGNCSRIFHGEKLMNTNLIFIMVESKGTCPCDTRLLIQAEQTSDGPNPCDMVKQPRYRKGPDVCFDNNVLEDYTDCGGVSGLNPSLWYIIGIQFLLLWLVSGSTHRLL
T1 sequence (P54284 whole entry, further chain): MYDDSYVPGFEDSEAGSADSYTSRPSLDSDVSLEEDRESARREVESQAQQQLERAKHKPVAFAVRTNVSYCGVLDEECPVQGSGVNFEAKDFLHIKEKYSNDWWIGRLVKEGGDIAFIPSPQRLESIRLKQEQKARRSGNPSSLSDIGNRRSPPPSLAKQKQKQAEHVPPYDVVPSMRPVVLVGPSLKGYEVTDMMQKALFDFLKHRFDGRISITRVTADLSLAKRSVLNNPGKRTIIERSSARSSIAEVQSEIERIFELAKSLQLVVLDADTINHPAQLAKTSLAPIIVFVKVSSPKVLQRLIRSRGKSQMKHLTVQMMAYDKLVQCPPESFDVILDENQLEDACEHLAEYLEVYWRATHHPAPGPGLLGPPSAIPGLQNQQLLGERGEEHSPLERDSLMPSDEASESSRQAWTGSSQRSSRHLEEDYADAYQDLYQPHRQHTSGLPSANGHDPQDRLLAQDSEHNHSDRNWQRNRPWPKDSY

| Compound | inhibition at 3 µM |
| --- | --- |
| Cc1c(-c2ccc(Cl)cc2F)c(C(=O)N(CCS(C)(=O)=O)C(C)C)n(Cc2ccccc2)c1C(F)(F)F [SC-169, 1-Benzyl-3-(4-chloro-2-fluoro-phenyl)-N-isopropyl-4-methyl-N-(2-methylsulfonyl-ethyl)-5-(trifluoromethyl)-1H-pyrrole-2-carboxylic acid amide] | 75 to 95% |
| Cc1c(-c2ccc(Cl)cc2F)c(C(=O)N2CCS(=O)(=O)C(C)(C)C2)n(Cc2ccccc2)c1C(F)(F)F [SC-170, [1-Benzyl-3-(4-chloro-2-fluoro-phenyl)-4-methyl-5-(trifluoromethyl)-1H-pyrrol-2-yl]-(2,2-dimethyl-1,1-dioxo-[1,4]thiazinan-4-yl)-methanone] | > 95% |
| Cc1c(-c2ccc(Cl)cc2F)c(C(=O)N(C)C2CCS(=O)(=O)C2)n(Cc2ccccc2)c1C(F)(F)F (stereo not drawn) [SC-171, 1-Benzyl-3-(4-chloro-2-fluoro-phenyl)-N-(1,1-dioxo-thiolan-3-yl)-N,4-dimethyl-5-(trifluoromethyl)-1H-pyrrole-2-carboxylic acid amide] | > 95% |
| Cc1c(-c2ccc(Cl)cc2F)c(C(=O)NC2CC2)n(Cc2ccccc2)c1C(F)(F)F [SC-172, 1-Benzyl-3-(4-chloro-2-fluoro-phenyl)-N-cyclopropyl-4-methyl-5-(trifluoromethyl)-1H-pyrrole-2-carboxylic acid amide] | 75 to 95% |
| Cc1c(-c2ccc(Cl)cc2F)c(C(=O)N2CCS(=O)(=O)CC2)n(Cc2ccccc2)c1C(F)(F)F [SC-173, [1-Benzyl-3-(4-chloro-2-fluoro-phenyl)-4-methyl-5-(trifluoromethyl)-1H-pyrrol-2-yl]-(1,1-dioxo-[1,4]thiazinan-4-yl)-methanone] | > 95% |
| CN(CC(C)(C)C(N)=O)C(=O)c1c(-c2ccc(Cl)cc2)cc(C(F)(F)F)n1Cc1ccccc1 [SC-174, 1-Benzyl-N-(2-carbamoyl-2-methyl-propyl)-3-(4-chlorophenyl)-N-methyl-5-(trifluoromethyl)-1H-pyrrole-2-carboxylic acid amide] | > 95% |
| CN(CCC(C)(C)O)C(=O)c1c(-c2ccc(Cl)cc2)cc(C(F)(F)F)n1Cc1ccccc1 [SC-176, 1-Benzyl-3-(4-chlorophenyl)-N-(3-hydroxy-3-methyl-butyl)-N-methyl-5-(trifluoromethyl)-1H-pyrrole-2-carboxylic acid amide] | > 95% |
| CC(C)(CO)CNC(=O)c1c(-c2ccc(Cl)cc2)cc(C(F)(F)F)n1Cc1ccccc1 [SC-177, 1-Benzyl-3-(4-chlorophenyl)-N-(3-hydroxy-2,2-dimethyl-propyl)-5-(trifluoromethyl)-1H-pyrrole-2-carboxylic acid amide] | > 95% |
| CN(CC1(CO)CC1)C(=O)c1c(-c2ccc(Cl)cc2)cc(C(F)(F)F)n1Cc1ccccc1 [SC-178, 1-Benzyl-3-(4-chlorophenyl)-N-[[1-(hydroxymethyl)-cyclopropyl]-methyl]-N-methyl-5-(trifluoromethyl)-1H-pyrrole-2-carboxylic acid amide] | > 95% |
| CN(CC1(CO)CCC1)C(=O)c1c(-c2ccc(Cl)cc2)cc(C(F)(F)F)n1Cc1ccccc1 [SC-179, 1-Benzyl-3-(4-chlorophenyl)-N-[[1-(hydroxymethyl)-cyclobutyl]-methyl]-N-methyl-5-(trifluoromethyl)-1H-pyrrole-2-carboxylic acid amide] | > 95% |
| CN(CC(C)(C)CN1CCOCC1)C(=O)c1c(-c2ccc(Cl)cc2)cc(C(F)(F)F)n1Cc1ccccc1 [SC-180, 1-Benzyl-3-(4-chlorophenyl)-N-(2,2-dimethyl-3-morpholin-4-yl-propyl)-N-methyl-5-(trifluoromethyl)-1H-pyrrole-2-carboxylic acid amide] | 75 to 95% |
| O=C(c1c(-c2ccc(Cl)cc2)cc(C(F)(F)F)n1Cc1ccccc1)N1CCC(CO)C1 (stereo not drawn) [SC-181, [1-Benzyl-3-(4-chlorophenyl)-5-(trifluoromethyl)-1H-pyrrol-2-yl]-[3-(hydroxymethyl)-pyrrolidin-1-yl]-methanone] | 75 to 95% |
| CN(CC1CCOC1)C(=O)c1c(-c2ccc(Cl)cc2)cc(C(F)(F)F)n1Cc1ccccc1 (stereo not drawn) [SC-182, 1-Benzyl-3-(4-chlorophenyl)-N-methyl-N-(tetrahydro-furan-3-yl-methyl)-5-(trifluoromethyl)-1H-pyrrole-2-carboxylic acid amide] | > 95% |
| CN(CC(C)(CO)CO)C(=O)c1c(-c2ccc(Cl)cc2)cc(C(F)(F)F)n1Cc1ccccc1 [SC-183, 1-Benzyl-3-(4-chlorophenyl)-N-[3-hydroxy-2-(hydroxymethyl)-2-methyl-propyl]-N-methyl-5-(trifluoromethyl)-1H-pyrrole-2-carboxylic acid amide] | > 95% |
| CN(C(=O)c1c(-c2ccc(Cl)cc2)cc(C(F)(F)F)n1Cc1ccccc1)C(C)(C)CCO [SC-184, 1-Benzyl-3-(4-chlorophenyl)-N-(3-hydroxy-1,1-dimethyl-propyl)-N-methyl-5-(trifluoromethyl)-1H-pyrrole-2-carboxylic acid amide] | 75 to 95% |
| CS(=O)(=O)C1CCN(C(=O)c2c(-c3ccc(Cl)cc3)cc(C(F)(F)F)n2Cc2ccccc2)C1 (stereo not drawn) [SC-185, [1-Benzyl-3-(4-chlorophenyl)-5-(trifluoromethyl)-1H-pyrrol-2-yl]-(3-methylsulfonyl-pyrrolidin-1-yl)-methanone] | > 95% |
| CN(C(=O)c1c(-c2ccc(Cl)cc2)cc(C(F)(F)F)n1Cc1ccccc1)C(CO)C(C)(C)C (stereo not drawn) [SC-186, 1-Benzyl-3-(4-chlorophenyl)-N-[1-(hydroxymethyl)-2,2-dimethyl-propyl]-N-methyl-5-(trifluoromethyl)-1H-pyrrole-2-carboxylic acid amide] | > 95% |
| CN(CC(C)(C)C#N)C(=O)c1c(-c2ccc(Cl)cc2)cc(C(F)(F)F)n1Cc1ccccc1 [SC-187, 1-Benzyl-3-(4-chlorophenyl)-N-(2-cyano-2-methyl-propyl)-N-methyl-5-(trifluoromethyl)-1H-pyrrole-2-carboxylic acid amide] | > 95% |
| CN(CC(C)(C)CN)C(=O)c1c(-c2ccc(Cl)cc2)cc(C(F)(F)F)n1Cc1ccccc1 [SC-188, N-(3-Amino-2,2-dimethyl-propyl)-1-benzyl-3-(4-chlorophenyl)-N-methyl-5-(trifluoromethyl)-1H-pyrrole-2-carboxylic acid amide] | 75 to 95% |
| CN(CCCS(C)(=O)=O)C(=O)c1c(-c2ccc(Cl)cc2)cc(C(F)(F)F)n1Cc1ccccc1 [SC-189, 1-Benzyl-3-(4-chlorophenyl)-N-methyl-N-(3-methylsulfonyl-propyl)-5-(trifluoromethyl)-1H-pyrrole-2-carboxylic acid amide] | > 95% |
| CCN(CCS(C)(=O)=O)C(=O)c1c(-c2ccc(Cl)cc2)cc(C(F)(F)F)n1Cc1ccccc1 [SC-190, 1-Benzyl-3-(4-chlorophenyl)-N-ethyl-N-(2-methylsulfonyl-ethyl)-5-(trifluoromethyl)-1H-pyrrole-2-carboxylic acid amide] | > 95% |
| CS(=O)(=O)CCNC(=O)c1c(-c2ccc(Cl)cc2)cc(C(F)(F)F)n1Cc1ccccc1 [SC-191, 1-Benzyl-3-(4-chlorophenyl)-N-(2-methylsulfonyl-ethyl)-5-(trifluoromethyl)-1H-pyrrole-2-carboxylic acid amide] | 75 to 95% |
| CCS(=O)(=O)CCN(C)C(=O)c1c(-c2ccc(Cl)cc2)cc(C(F)(F)F)n1Cc1ccccc1 [SC-192, 1-Benzyl-3-(4-chlorophenyl)-N-[2-(ethylsulfonyl)-ethyl]-N-methyl-5-(trifluoromethyl)-1H-pyrrole-2-carboxylic acid amide] | > 95% |
| CN(C(=O)c1c(-c2ccc(Cl)cc2)cc(C(F)(F)F)n1Cc1ccccc1)C1CCS(=O)(=O)CC1 [SC-193, 1-Benzyl-3-(4-chlorophenyl)-N-(1,1-dioxo-thian-4-yl)-N-methyl-5-(trifluoromethyl)-1H-pyrrole-2-carboxylic acid amide] | > 95% |
| CC(C)S(=O)(=O)CCN(C)C(=O)c1c(-c2ccc(Cl)cc2)cc(C(F)(F)F)n1Cc1ccccc1 [SC-194, 1-Benzyl-3-(4-chlorophenyl)-N-[2-(isopropylsulfonyl)-ethyl]-N-methyl-5-(trifluoromethyl)-1H-pyrrole-2-carboxylic acid amide] | > 95% |
| CN(CCC1CCCO1)C(=O)c1c(-c2ccc(Cl)cc2)cc(C(F)(F)F)n1Cc1ccccc1 (stereo not drawn) [SC-195, 1-Benzyl-3-(4-chlorophenyl)-N-methyl-N-(2-tetrahydro-furan-2-yl-ethyl)-5-(trifluoromethyl)-1H-pyrrole-2-carboxylic acid amide] | > 95% |
| O=C(c1c(-c2ccc(Cl)cc2)cc(C(F)(F)F)n1Cc1ccccc1)N1CCS(=O)(=O)CC1 [SC-196, [1-Benzyl-3-(4-chlorophenyl)-5-(trifluoromethyl)-1H-pyrrol-2-yl]-(1,1-dioxo-[1,4]thiazinan-4-yl)-methanone] | > 95% |
| CN(CC1CCCO1)C(=O)c1c(-c2ccc(Cl)cc2)cc(C(F)(F)F)n1Cc1ccccc1 (stereo not drawn) [SC-197, 1-Benzyl-3-(4-chlorophenyl)-N-methyl-N-(tetrahydro-furan-2-yl-methyl)-5-(trifluoromethyl)-1H-pyrrole-2-carboxylic acid amide] | > 95% |
| CC(CS(C)(=O)=O)N(C)C(=O)c1c(-c2ccc(Cl)cc2)cc(C(F)(F)F)n1Cc1ccccc1 (stereo not drawn) [SC-198, 1-Benzyl-3-(4-chlorophenyl)-N-methyl-N-(1-methyl-2-methylsulfonyl-ethyl)-5-(trifluoromethyl)-1H-pyrrole-2-carboxylic acid amide] | > 95% |
| CN(CC1CCC[C@@H]1O)C(=O)c1c(-c2ccc(Cl)cc2)cc(C(F)(F)F)n1Cc1ccccc1 (stereo partly drawn) [SC-199, 1-Benzyl-3-(4-chlorophenyl)-N-[[(2S)-2-hydroxy-cyclopentyl]-methyl]-N-methyl-5-(trifluoromethyl)-1H-pyrrole-2-carboxylic acid amide] | > 95% |
